From publication PMC10818749, “Toxicity Studies of Cardiac-Targeting Peptide Reveal a Robust Safety Profile” (Pharmaceutics, 2024)
“Also recorded” adds a separate entry of the source. Ends that are not written are not given here.

Experiments:
[1] = test system: seventy-eight protein channels; assay: Eurofins SAFETYscan E/IC50 ELECT (all seventy-eight assays); conditions: CTP 0.1 µM to 30 µM
Protocol: Eurofins Toxicology Study: In vitro toxicology studies were performed by Eurofins Scientific through both their Ion Channel Profiler and Cardiac Profiler Panel and their DiscoverX’s SAFETYscan E/IC50 […] service. Increasing concentrations of CTP (0.1 µM to 30 µM) were tested against various ion channels and a total of seventy-eight assays performed utilizing various output reads, including GPCR cAMP modulation assays, calcium mobilization assays, nuclear hormone receptor assays, KINOMEscan binding assays, ion channel assays, transporter assays, and enzymatic assays. All methods described below were performed, described, and reported by Eurofins Scientific in their study report (Supplementary Methods S1 and S2).
GPCR cAMP modulation assays, calcium mobilization assays, nuclear hormone receptor assays, KINOMEscan binding assays, ion channel assays, transporter assays, and enzymatic assays were performed by Eurofins under GLP standards.
DiscoverX was contracted by Maliha Zahid at Mayo Clinic to profile 1 compound(s) with the SAFETYscan E/IC50 ELECT service. Details are
Product: SAFETYscan E/IC50 ELECT
ADOR A2A- Calci um Flux-Agonist DRD2S-cAMP-Agonist HTR3A-Ion Channel-Blocker
ADORA2A-Calcium Flux-Antagonist DRD2S-cAMP-Antagonist HTR3A-Ion Channel-Opener
ADRA1A-Calcium Flux-Agonist EDNRA-Calcium Flux-Agonist KvLQT1/minK-Ion Channel-Blocker […]

NAV1.5 = NAV1.5 (Homo sapiens, UniProt Q14524); assay: in vitro; type: cell-based; conditions: up to 30 µM
Sequence of NAV1.5 (Q14524 whole entry): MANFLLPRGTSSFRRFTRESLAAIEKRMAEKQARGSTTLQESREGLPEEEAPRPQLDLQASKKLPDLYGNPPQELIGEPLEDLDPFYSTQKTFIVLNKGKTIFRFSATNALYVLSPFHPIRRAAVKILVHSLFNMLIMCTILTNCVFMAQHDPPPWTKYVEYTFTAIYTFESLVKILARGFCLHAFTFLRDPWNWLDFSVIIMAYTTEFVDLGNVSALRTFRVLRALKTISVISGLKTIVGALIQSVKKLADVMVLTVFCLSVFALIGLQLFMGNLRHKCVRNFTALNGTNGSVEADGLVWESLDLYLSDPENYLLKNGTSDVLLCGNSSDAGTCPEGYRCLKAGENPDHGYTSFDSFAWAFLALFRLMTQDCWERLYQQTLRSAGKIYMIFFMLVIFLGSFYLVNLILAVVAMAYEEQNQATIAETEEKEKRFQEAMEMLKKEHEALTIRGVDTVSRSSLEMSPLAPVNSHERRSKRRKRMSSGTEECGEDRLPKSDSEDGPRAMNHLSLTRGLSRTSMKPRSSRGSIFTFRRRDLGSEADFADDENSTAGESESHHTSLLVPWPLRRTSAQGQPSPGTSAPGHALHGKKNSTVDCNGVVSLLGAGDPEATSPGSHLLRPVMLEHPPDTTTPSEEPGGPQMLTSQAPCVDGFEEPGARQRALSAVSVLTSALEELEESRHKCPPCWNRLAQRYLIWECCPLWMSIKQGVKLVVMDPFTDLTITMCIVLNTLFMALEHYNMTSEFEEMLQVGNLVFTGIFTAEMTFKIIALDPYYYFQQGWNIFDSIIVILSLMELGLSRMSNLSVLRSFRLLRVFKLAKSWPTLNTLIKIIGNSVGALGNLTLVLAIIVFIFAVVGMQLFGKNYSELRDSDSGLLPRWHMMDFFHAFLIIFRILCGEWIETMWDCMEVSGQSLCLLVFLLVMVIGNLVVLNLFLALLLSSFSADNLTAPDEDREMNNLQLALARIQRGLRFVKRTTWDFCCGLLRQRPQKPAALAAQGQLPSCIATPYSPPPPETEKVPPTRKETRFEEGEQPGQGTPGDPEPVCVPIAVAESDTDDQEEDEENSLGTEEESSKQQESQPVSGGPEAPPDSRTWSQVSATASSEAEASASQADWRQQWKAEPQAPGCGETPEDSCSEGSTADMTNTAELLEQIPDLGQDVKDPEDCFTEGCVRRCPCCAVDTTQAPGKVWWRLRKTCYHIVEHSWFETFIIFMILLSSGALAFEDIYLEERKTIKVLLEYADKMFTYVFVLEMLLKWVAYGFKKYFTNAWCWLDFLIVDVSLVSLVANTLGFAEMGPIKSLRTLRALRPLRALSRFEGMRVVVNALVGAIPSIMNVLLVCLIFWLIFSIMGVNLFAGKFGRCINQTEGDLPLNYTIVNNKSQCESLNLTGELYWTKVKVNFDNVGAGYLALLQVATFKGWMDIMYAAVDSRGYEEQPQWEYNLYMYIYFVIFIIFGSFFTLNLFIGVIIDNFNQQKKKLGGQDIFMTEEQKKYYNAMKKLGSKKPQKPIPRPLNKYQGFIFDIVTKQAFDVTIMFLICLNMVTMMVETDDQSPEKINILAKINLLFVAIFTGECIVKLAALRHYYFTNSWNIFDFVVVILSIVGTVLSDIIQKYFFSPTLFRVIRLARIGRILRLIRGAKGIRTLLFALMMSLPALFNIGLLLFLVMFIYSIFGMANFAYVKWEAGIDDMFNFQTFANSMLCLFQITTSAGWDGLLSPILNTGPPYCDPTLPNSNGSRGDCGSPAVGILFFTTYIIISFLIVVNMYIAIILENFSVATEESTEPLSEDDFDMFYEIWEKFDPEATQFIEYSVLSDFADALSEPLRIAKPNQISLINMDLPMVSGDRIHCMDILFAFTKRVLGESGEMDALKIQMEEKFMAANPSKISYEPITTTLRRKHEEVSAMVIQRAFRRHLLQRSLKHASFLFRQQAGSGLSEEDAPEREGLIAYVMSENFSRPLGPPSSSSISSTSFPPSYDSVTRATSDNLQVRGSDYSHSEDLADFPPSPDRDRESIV
Protocol: Ion Channel Assays: Cell lines were grown, plated, and loaded with 1× loading buffer containing 1× dye and 2.5 mM freshly prepared probenecid. Assays were performed, and activity was measured using a FLIPR Tetra. Percent of activation and percent of inhibition were calculated to determine agonist and antagonist activity, respectively. […]
The KINOMEscan screening platform employs a novel and propri- Membrane Potential Assay etary active site-directed competition binding assay to quantitatively The FLIPR® Membrane Potential Assay Kit is used which utilizes a pro-measure interactions between test compounds and the kinases. prietary fluorescent indicator dye in combination with a quencher to This robust and reliable assay technology affords investigators the reflect real-time membrane potential changes associated with ion ability to extensively annotate compounds with accurate, precise channel activation and ion transporter proteins. […]
Compounds that bind the kinase active site and directly (sterically) be monitored within a single experiment. […]
Upon stimulation, […]
a quantitative, precise and ultra-sensitive qPCR method that detects the receptor signals release of intracellular calcium, which results in the associated DNA label (D). In a similar manner, dissociation con- an increase of dye fluorescence. […]
1. Compound activity was measured on a FLIPR Tetra (MDS). […]

Sequence: APWHLSSQYSRT [CTP]
- significant interactions across all seventy-eight assays [1]: No significant activation or inhibition of any of seventy-eight protein channels was observed other than OPRM1 and COX2 at the highest tested concentration; also recorded: only two showed significant interactions
- blocking or activation (NAV1.5; SAFETYscan ion channel assay): no significant blocking or activation
- IC50 (NAV1.5; blocker, FLIPR Tetra, read-out: RC50 (the source's name)): > 30 µM
